Data on four molecules can be found in publication PMC12281142, “A potent phenylalkylamine disrupts mycobacterial membrane bioenergetics and augments bactericidal activity of bedaquiline” (iScience, 2025).

Values after ≈ are worked out from the molar mass of the structure shown. Values joined by “and” are separate entries in the source; they are usually repeats but may differ in a detail not shown here. Identical values can stand only once. Like-named read-outs stand apart in the source and are kept apart here.

Series [1] relates to M. bovis BCG. In words: microbe, parasite or virus in culture. The format is cell-based, Mycobacterium bovis BCG. As to conditions: for MIC50 / MIC90: Mycobacterium tuberculosis variant bovis BCG, BCG.
In series [2] the test system is M. bovis BCG. The series is classed as cell-based, Mycobacterium bovis BCG.
A further series concerns Mab abscessus. Description: Time-kill kinetics, Mab abscessus. As to conditions: BDQ alone 4x to 32x MIC90 (0.84–6.7 μg/mL). The series is classed as cell-based, Mycobacterium abscessus subsp. abscessus.
The next series deals with Mab abscessus ATCC 19977. Description: MIC against Mab abscessus ATCC 19977. The format is cell-based, Mycobacterium abscessus subsp. abscessus. The conditions noted are these: Mycobacteroides abscessus; for MIC50: ATCC19977, 72 h, 3 days.
In series [3] the test system is M. bovis BCG. The format is cell-based, Mycobacterium bovis BCG. The conditions noted are these: 15 μM or 8 μg/mL, equivalent to 230x MIC50.
In series [4] the test system is M. bovis BCG. The series is classed as cell-based, Mycobacterium bovis BCG. The conditions noted are these: 2x MIC90BCG over 48 h.
The subject of series [5] is M. bovis BCG. As to conditions: 2x MIC90 over 24 h.
Series [6] has as its system M. bovis BCG. The format is cell-based, Mycobacterium bovis BCG. The conditions noted are these: 24 h.
Series [7] concerns M. bovis BCG. The format is cell-based, Mycobacterium bovis BCG. The conditions noted are these: 0.5x to 4x MIC90BCG.
Series [8] has as its system M. bovis BCG. The format is cell-based, Mycobacterium bovis BCG. As to conditions: PhA2 2x–4x MIC90BCG, TDZ 80 μM, 24 h.
Another series concerns cat papillary muscle. As to conditions: cited from earlier work.
Series [9] concerns Mab massiliense CCUG 48898-T. In words: MIC against Mab massiliense CCUG 48898-T. The series is classed as cell-based, Mycobacterium abscessus subsp. massiliense. The conditions noted are these: Mycobacteroides abscessus; for MIC50: CCUG48898, 72 h, 3 days.
The next series relates to HepG2. In words: Cytotoxicity in HepG2 cells. The series is classed as cell-based, human. The conditions noted are these: Homo sapiens, HepG2; 48 h, growth suppressed by 50% vs untreated. The procedure:
(§1) To each well in a 96-well plate, 50,000 cells in 100 μL media were seeded. Vero E6 and HepG2 cells were incubated overnight in DMEM for cell adherence at 37°C and 5% CO2. The media was removed from the wells and 100 μL solution made up of fresh DMEM media (99 μL) and the test compound (1 μL from a DMSO stock solution that was […] more concentrated than the final concentration in the well) was then added to each well. DMSO content of each well was consistently kept at 0.5 %v/v. Treated plates were incubated for 48 h (5% CO2, 37°C), after which 10 μL of Celltitre 96 Aqueous One Solution was added to each well, without removal of media, and incubated for a further 3 h. Subsequently, absorbance readings were taken at 490 nm on a Tecan GENios Microplate Reader.
(§2) Cell viability was determined from the expression: Cellviability(%)={[Absorbance(cells+cpd)−Absorbance(cpd)]/[Absorbance(cells+vc)−Absorbance(vc)]}×100% where Absorbance (cells + cpd) = absorbance of wells containing cells and test compound in vehicle (media +0.5% DMSO); Absorbance (cpd) = absorbance of wells containing test compound in vehicle without cells (compound control); Absorbance (cells + vc) = absorbance of wells containing cells in vehicle (vc) only (untreated cells); Absorbance (vc) = absorbance of wells containing vehicle without cells (vehicle control). The percentage viability readings were plotted against log(concentration) on GraphPad Prism (Version 7.0, San Diego, CA) to give a sigmoidal curve, from which IC50, defined as the concentration of the compound that reduced cell viability by 50%, was obtained. At least 3 separate determinations were carried out.

Series [10] deals with M. bovis BCG. The series is classed as cell-based, Mycobacterium bovis BCG. As to conditions: 2x MIC90BCG, 6 h time point, cultures still viable.
The subject of another series is mycobacterial growth. The conditions noted are these: cited from earlier work.
The next series concerns Mtb H37Rv. In words: MIC by broth microdilution against Mtb H37Rv. As to conditions: Mycobacterium tuberculosis, H37RV. The format is cell-based, Mycobacterium tuberculosis. (In general: Dilution methods test growth across graded concentrations, often in twofold steps.)
A further series deals with Mab complex. Description: MIC against Mab complex (summary over the 3 subspecies). As to conditions: Mycobacteroides abscessus; range over subspecies. The series is classed as cell-based, Mycobacterium abscessus.
For another series, the system named is Vero E6. In words: Cytotoxicity in Vero E6 cells. The series is classed as cell-based, African green monkey. As to conditions: Chlorocebus sabaeus, Vero C1008, 48 h, growth suppressed by 50% vs untreated. The procedure:
as §1, §2

Series [11] has as its system nonreplicating M. bovis BCG. The series is classed as cell-based, Mycobacterium bovis BCG. The conditions noted are these: 4x MIC90BCG, 5 days, Wayne model.
The subject of series [12] is Mab bolletii CCUG 50184-T. Description: MIC against Mab bolletii CCUG 50184-T. The conditions noted are these: Mycobacteroides abscessus; for MIC50: CCUG50184, 72 h, 3 days. The series is classed as cell-based, Mycobacterium abscessus subsp. bolletii.
The mark [13] stands for this setting: M. bovis BCG, broth dilution, growth reduced by 50% vs untreated.
The mark [14] stands for this setting: M. bovis BCG, broth dilution, growth reduced by 90% vs untreated.
Setting [15] is: read-out: MIC90 BCG, M. bovis BCG.
[16] abbreviates: ATCC19977, Mab abscessus, read-out: MIC90 abscessus.
Where [17] appears, read: read-out: MIC90 (Table S1), M. bovis BCG, broth dilution.
Setting [18] is: 7H9 medium (first value of cell).
Setting [19] is: CA-MHB medium (second value of cell).

By IC50 is commonly meant the midpoint of a concentration-inhibition curve.

`COc1nc2ccc(Br)cc2cc1[C@@H](c1ccccc1)[C@@](O)(CCN(C)C)c1cccc2ccccc12` [BDQ, bedaquiline]: the MIC50 against M. bovis BCG [1] (setting [13]) was determined as 0.065 µM; in the series with M. bovis BCG [1] (read-out: MIC50 BCG), 0.036 mg/L. For the same molecule, the MIC90 is 0.25 µM in the series on M. bovis BCG [1] (setting [14]); 0.14 mg/L in the series with M. bovis BCG [1] (setting [15]); 0.37 µM and 0.21 µg/mL in the series on Mab abscessus ATCC 19977 (setting [16]). In addition, the “reduction in CFU” value with M. bovis BCG [2] (BDQ alone 4x MIC90BCG (0.56 μg/mL), 28-day time point) amounted to 10 fold. Also, in the series on Mab abscessus, the bactericidal activity entry is “none to be bactericidal”. The oxygen consumption rate entry with M. bovis BCG [3] is listed as “sharp increase in OCR”.
On to `NNC(=O)c1ccncc1` [INH, isoniazid, reference compound], for which the “effect on ATP levels” value in the series with M. bovis BCG [4] was “marked surge in ATP levels”. Also, in the series on M. bovis BCG [1] (M. bovis BCG), the “MIC90 BCG” value stood at 0.4 mg/L (≈ 2.92 µM). The values for the MIC90 in the series on M. bovis BCG [1] (setting [14]), in the series with M. bovis BCG [1] (setting [17]) and with M. bovis BCG [1] (setting [15]) were 3.4 µM, 3.5 µM and 0.45 mg/L, respectively. Besides, the membrane permeabilization result with M. bovis BCG [5] is “negligible permeabilization”. Also, the “regrowth in time-kill curve” value in the series with M. bovis BCG [2] (2xMIC90BCG, 21 days) is “uptick in CFUs was observed after 5 days”. Moreover, the “methylene blue decolorization (O2 uptake)” value in the series on M. bovis BCG [6] (4xMIC90BCG (1.6 μg/mL)) is given as “Decolorization (active O2 uptake)”. For the same molecule, the “formazan formation from MTS” value in the series on M. bovis BCG [7] is recorded as “increased formazan formation”.
As for `CSc1ccc2c(c1)N(CCC1CCCCN1C)c1ccccc1S2` (stereo not drawn) [TDZ, thioridazine, reference compound], the results for the MIC90 in the series on M. bovis BCG [1] (setting [14]) and in the series on M. bovis BCG [1] (setting [15]) were 30 µM and 11 mg/L, respectively. Moreover, in the series on M. bovis BCG [8], the “NADH/NAD+ ratio” value is “higher ratios”. Also, the “methylene blue decolorization (O2 uptake)” value in the series on M. bovis BCG [6] (80 μM, 30 μg/mL) is “No decolorization”.
As for `COc1ccc(CCN(C)CCCC(C#N)(c2ccc(OC)c(OC)c2)C(C)C)cc1OC` (stereo not drawn) [VP, verapamil, reference compound], the “ED50 (concentration to reduce maximal contractility of the papillary muscle by 50%)” value in the series with cat papillary muscle was 3.5 µM. For the same molecule, the MIC90 in series [9] (CCUG48898, 7H9 broth (first value)) is 2250 µM (≈ 1020 µg/mL); in [9] (CCUG48898, camH broth (second value)) it was greater than 2500 µM; with M. bovis BCG [1] (setting [14]) it was 550 µM; in the series on M. bovis BCG [1] (setting [17]), 550 µM; in the series on M. bovis BCG [1] (setting [15]) it was 250 mg/L; in the series on Mab abscessus ATCC 19977 (ATCC19977, 7H9 broth (first value), read-out: MIC90 Mab abscessus ATCC 19977), 2400 µM (≈ 1090 µg/mL). The MIC90 in the series with Mab abscessus ATCC 19977 (setting [16]) is 2400 µM and 1100 µg/mL; in the series on Mab abscessus ATCC 19977 (ATCC19977, camH broth (second value), read-out: MIC90 Mab abscessus ATCC 19977) it was greater than 2500 µM; with Mtb H37Rv (120 h, second value of cell MIC50/MIC90, incubation 5 days, read-out: MIC90 Mtb H37Rv), 540 µM; in the series with Mtb H37Rv (read-out: MIC90 Mtb), 246 mg/L; in series [12] (CCUG50184, 7H9 broth (first value)), 2200 µM (≈ 1000 µg/mL); in series [12] (CCUG50184, camH broth (second value)), greater than 2500 µM. The MIC50 in series [9] (setting [18]) stood at 1100 µM (≈ 500 µg/mL); in series [9] (setting [19]), 1150 µM (≈ 523 µg/mL); with M. bovis BCG [1] (120 h, read-out: MIC50 BCG With Glycerol, 7H9 broth with glycerol, 5 days), 210 µM; in the series on M. bovis BCG [1] (120 h, read-out: MIC50 BCG Without Glycerol, 7H9 broth without glycerol, 5 days), 450 µM; against M. bovis BCG [1] (setting [13]) it was 210 µM; with M. bovis BCG [1] (read-out: MIC50 BCG, 7H9 with glycerol), 96 mg/L. Also, the MIC50 in the series with M. bovis BCG [1] (read-out: MIC50 BCG, 7H9 without glycerol) is 205 mg/L; against Mab abscessus ATCC 19977 (setting [18]), 1290 µM (≈ 586 µg/mL); against Mab abscessus ATCC 19977 (setting [19]), 1200 µM (≈ 546 µg/mL); with Mtb H37Rv (120 h, read-out: MIC50 Mtb H37Rv), 241 µM; in the series on Mtb H37Rv (read-out: MIC50 Mtb), 110 mg/L; against Mab complex, 500 to 564 mg/L (≈ 1100 to 1240 µM). For the same molecule, the MIC50 came out at 1450 µM (≈ 659 µg/mL) in [12] (setting [18]) and 1250 µM (≈ 568 µg/mL) in series [12] (setting [19]). For the same molecule, the 50% inhibitory concentration (IC50) amounted to 504 µM with HepG2 and 543 µM in the series on Vero E6. Besides, the membrane depolarization entry in the series with M. bovis BCG [10] is “depolarization was evident”. For the same molecule, the “time to reduce the CFU count to the detection limit” value in the series with M. bovis BCG [2] (2XMIC90BCG (1.1 mM, 500 μg/mL)) was 14 days. In the series on mycobacterial growth, the “concentration to inhibit mycobacterial growth” value was ~500 μM and ~227 μg/mL. Further, in series [11], the “kill of hypoxic M. bovis BCG” value is 10^2 fold.
